Tests used:
TPX = molecular target: T1, TPX (Sus scrofa, UniProt P09933); test: TPX-catalyzed iodide oxidation (triiodide formation), spectrophotometric; assay type: biochemical, hog
T1 sequence (P09933 15-926): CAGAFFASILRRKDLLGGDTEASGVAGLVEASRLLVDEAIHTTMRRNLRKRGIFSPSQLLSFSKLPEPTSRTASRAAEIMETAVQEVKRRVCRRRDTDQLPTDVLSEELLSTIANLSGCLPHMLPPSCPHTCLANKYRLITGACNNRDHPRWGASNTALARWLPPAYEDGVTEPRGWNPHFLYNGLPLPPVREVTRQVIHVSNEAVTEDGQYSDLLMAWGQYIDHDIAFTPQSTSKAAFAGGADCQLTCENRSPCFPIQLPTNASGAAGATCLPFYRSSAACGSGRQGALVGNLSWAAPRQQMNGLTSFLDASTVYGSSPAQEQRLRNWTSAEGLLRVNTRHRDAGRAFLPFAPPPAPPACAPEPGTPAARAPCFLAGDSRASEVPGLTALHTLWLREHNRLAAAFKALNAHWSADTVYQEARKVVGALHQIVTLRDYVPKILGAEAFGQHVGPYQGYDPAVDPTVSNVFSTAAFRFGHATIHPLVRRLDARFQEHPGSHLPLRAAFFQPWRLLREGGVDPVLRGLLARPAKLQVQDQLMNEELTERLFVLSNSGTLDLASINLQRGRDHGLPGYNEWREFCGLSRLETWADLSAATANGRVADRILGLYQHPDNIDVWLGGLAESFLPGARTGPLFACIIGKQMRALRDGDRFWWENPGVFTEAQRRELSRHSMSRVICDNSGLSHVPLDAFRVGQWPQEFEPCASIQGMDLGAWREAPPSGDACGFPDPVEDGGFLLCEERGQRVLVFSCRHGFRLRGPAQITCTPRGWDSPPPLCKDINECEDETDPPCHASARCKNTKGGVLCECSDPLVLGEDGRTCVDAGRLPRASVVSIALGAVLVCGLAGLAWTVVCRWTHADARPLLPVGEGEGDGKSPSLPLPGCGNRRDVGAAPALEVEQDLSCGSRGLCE
From the text: Materials used in the examples below were obtained from the following sources. Bovine LPX, bovine liver catalase, glucose oxidase, 30% hydrogen peroxide, glucose, guaiacol, ABTS and deuterium oxide were purchased from Sigma Chemical Company. Selenium dioxide, MBI ^13 CH3 I and PBA were purchased from Aldrich Chemical Company and PBA was purified as previously described by Fieset et al., Reagents for Organic Synthesis, Vol. I, pp.135-139, John Wiley and Sons, N.Y. (1967). LPX purity was checked by PAGE, as described by Doerge, D.R., et al. in, Biochem. Pharmacol., Vol.36, pp.972-974 (1986). TPX was purified from hog thyroids obtained from a local slaughterhouse by published procedures. Doerge & Takazowa, Chemical Research in Toxicology, Vol. 3, pp. 98-101 (1990). TPX purity was determined by LC and its concentration determined spectophotometrically. Hydroperoxide concentrations were determined by iodometric titration, as described by Kolthoff, et al., in "Quantitative Chemical Analysis", Macmillan, London, pp.842-860 (1969). MMBI, and BI were synthesized by published procedures as described by Doerge, D.R., Biochem, Vol. 27, pp. 3697-3700 (1988) and were recrystallized from aqueous ethanol. MeBI was purified by distillation and DMeBI^+ was synthesized and purified by recrystallization from ethyl acetate/methanol. 1-^13 C-MMBI was synthesized from ^13 CH3 I according to the procedure disclosed by Doerge, D.R., in, J. Lab. Comp. and Radiopharm., Vol.25, pp.985-990 (1988). PPHP and PPA were prepared, purified and analyzed as previously described by Doerge, Biochem, Vol.27, p.11 (1988). The methyl ester of 1-methyl-benzimidazole-2-sulfinic acid was prepared by addition of hydrogen peroxide (5 equivalents of a 10 M solution) to MMBI (0.1 M) in methanol. The products, MeBI and the ester, were obtained following preparative TLC on silica (Uniplate, Analtech Co., Newark, DL) using 5% methanol/chloroform as eluant. […]
1,3-diacetyl MBI (AczMBI) was synthesized according to the method published by Doerge et al., Syn. […] Varying quantities of Ac2 MBI were incubated with TPX, H2 O2, and I^-. […]

LPX and TPX = test: suicide inhibition of peroxidases (summary statements); assay type: biochemical
LPX = molecular target: T2, LPX (Bos taurus, UniProt P80025); test: LPX-mediated covalent binding of labelled thiocarbamides to LPX; parameters: species or system bovine; settings: +H2O2 vs. +H2O2 +KI; 14C- and 35S-labelled
T2 construct: purchased Sigma Chemical Company
From the text: Materials used in the examples below were obtained from the following sources. Bovine LPX, bovine liver catalase, glucose oxidase, 30% hydrogen peroxide, glucose, guaiacol, ABTS and deuterium oxide were purchased from Sigma Chemical Company. Selenium dioxide, MBI ^13 CH3 I and PBA were purchased from Aldrich Chemical Company and PBA was purified as previously described by Fieset et al., Reagents for Organic Synthesis, Vol. I, pp.135-139, John Wiley and Sons, N.Y. (1967). LPX purity was checked by PAGE, as described by Doerge, D.R., et al. in, Biochem. Pharmacol., Vol.36, pp.972-974 (1986). TPX was purified from hog thyroids obtained from a local slaughterhouse by published procedures. Doerge & Takazowa, Chemical Research in Toxicology, Vol. 3, pp. 98-101 (1990). TPX purity was determined by LC and its concentration determined spectophotometrically. Hydroperoxide concentrations were determined by iodometric titration, as described by Kolthoff, et al., in "Quantitative Chemical Analysis", Macmillan, London, pp.842-860 (1969). MMBI, and BI were synthesized by published procedures as described by Doerge, D.R., Biochem, Vol. 27, pp. 3697-3700 (1988) and were recrystallized from aqueous ethanol. MeBI was purified by distillation and DMeBI^+ was synthesized and purified by recrystallization from ethyl acetate/methanol. 1-^13 C-MMBI was synthesized from ^13 CH3 I according to the procedure disclosed by Doerge, D.R., in, J. Lab. Comp. and Radiopharm., Vol.25, pp.985-990 (1988). PPHP and PPA were prepared, purified and analyzed as previously described by Doerge, Biochem, Vol.27, p.11 (1988). The methyl ester of 1-methyl-benzimidazole-2-sulfinic acid was prepared by addition of hydrogen peroxide (5 equivalents of a 10 M solution) to MMBI (0.1 M) in methanol. The products, MeBI and the ester, were obtained following preparative TLC on silica (Uniplate, Analtech Co., Newark, DL) using 5% methanol/chloroform as eluant.
LPX-mediated covalent binding of ^14 C- and ^35 S-labelled thiocarbamides to LPX under iodide-dependent and -independent conditions was measured.

SMILES: Cn1c(=S)n(C)c2ccccc21 [DMMBI, 1,3-dimethylbenzimidazole-2-thione]
- effect on triiodide formation (TPX; TPX, H2O2 and I-): causes a lag in triiodide formation, followed by an increase in the rate of triiodide formation approximating the control rate
- inhibition of iodide ion oxidation (TPX; TPX/hydrogen peroxide): inhibits only iodide ion oxidation
- selectivity for iodide ion oxidation (LPX and TPX; alternate substrate mechanism): block only reactions involving iodide ion oxidation
- suicide inhibition (LPX and TPX; summary of own examples): not suicide inhibitors
- covalent binding to LPX (LPX): no binding over unstimulated controls

From patent publication US5371102A, “Compositions and methods of inhibiting thyroid activity” (priority 1993, dated 1994)
